Results on 3 molecules are retold here after patent US11116811B2, “Pharmaceutical composition comprising refined indigo naturalis extracts and the use thereof” (Galderma S.A., priority 2015, dated 2021).

Assay [1] concerns IL-22 induced psoriasis-like mouse models. The assay is described as follows: IL-22 induced psoriasis-like mouse model, ear thickness. More on the design: AUC of ear thickness: unit not given here. It is filed as in vivo, BABL/c mice. The procedure: • BABL/c mice, male, body weight 19-22 g, purchased from Shanghai SLC AnimalCenter. • Room temperature: 24±1° C. • Room relative humidity: 40-70% • Light cycle: Fluorescent light for 12-hour light (8:00-20:00) 12-hour dark • Animal hosting: 4 mice/cage • Food: Free access to food (irradiated, Shanghai SLAC Laboratory Animal Co. Ltd., China) • Water: Free access to tap water from local supply (first filtered by Molanimal ultrapure water machine from the municipal water supply) Instruments • MJ Research PTC-200 Peltier Thermal cycler (Alpha Unit™ Block Assembly for PTC DNA Engine™ systems) • Applied Biosystems 7500 realtime PCR system • Digimatic micrometer caliper: Mitutoyo, Japan. Accuracy: 0.001 mm Reagents • Recombinant mouse IL-22 (rmIL-22), Novoprotein (sinobio), Cat. C047, Lot. 0375351 • High capacity cDNA Reverse Transcription kit, Applied Biosystems, Part No.: 4368813, Lot: 0909069 • Thermo Scientific ABsolute SYBR Green Rox Mix, Thermo Scientific, Cat: AB-1163/A, Lot: 0911/16 Positive Control • Protopic® (tacrolimus, FK506), 0.1% ointment, Astellas Toyama Co., Ltd. Toyama Plant, H20100079, Lot: 028680. Dosing Regimen
Different concentrations of test samples, vehicle, or 0.1% of FK506 ointment, were topically administrated at 1% one hour after the induction of model and then given daily from day 1 to day 11, twice a day. The first day of administration of a test article was regarded as day 0.
Topical application, b.i.d.
Intradermal injection of 20 μL PBS, either alone or containing 100 or 500 ng recombinant mouse IL-22 (eBiosience), was administered into the ears of anesthetized mice using a 30-gauge needle every other day for eleven days. Ear thicknesses were measured before injection on day 0 and thereafter on days without injections. Ear measurements were taken at the center of the ears using a digimatic micrometer caliper (Mitutoyo).
Twenty-four hours after the last IL-22 treatment, mice were sacrificed, and ears were collected for further analysis.
Results of ear thickness data were expressed as mean±S. E. M. AUC of ear swelling was calculated by the ear thickness data from day 0 to day 11, and analyzed by repeated-measured ANOVA methods with IMP® software. Cytokine protein and gene expression data were evaluated with a one-way ANOVA and followed by student's t-test for post-hoc analysis. (Significance level was set at p<0.05).

The subject of the next assay is NFκB. The assay is described as follows: TNFα-induced NFκB activation reporter assay in 293/NFκB-Luc cells. Type of assay: cell-based. To be noted: Homo sapiens; TNFα-stimulated 293/NFκB-Luc, luciferase; replicate values separated by /; read-out: pro-inflammatory cytokine production IC50 (NFKB). On the technique in general: Reporter assays use an easily measured gene product as a stand-in for the process of interest.

[2] abbreviates: study 1, IL-22 100 ng in 20 μL i.d.
Setting [3] is: study 1, IL-22 500 ng in 20 μL i.d.

Values after ≈ are worked out from the molar mass of the structure shown.

Description for NFκB: Cell lysates were prepared by removing media and adding lysis buffer. 5× volume Luciferase Assay Reagent was added to each well prior to read plate. Luminescence was recorded using Perkin-Elmer Victor III plate reader (Perkin-ElmerLife Sciences, Boston, Mass., USA).
All IC50 values were determined by using Xlfit™ software (version 2.0) from ID Business Solutions (Guildford, UK). Background was defined in culture with cells treated with DMSO only and was subtracted for IC50 calculations.

As for `C=CC[C@@H]1/C=C(\C)C[C@H](C)C[C@H](OC)[C@H]2O[C@@](O)(C(=O)C(=O)N3CCCC[C@H]3C(=O)O[C@H](/C(C)=C/[C@@H]3CC[C@@H](O)[C@H](OC)C3)[C@H](C)[C@@H](O)CC1=O)[C@H](C)C[C@@H]2OC` [FK506, tacrolimus], the “AUC of ear thickness” value turned out to be 403 in assay [1] (study 2, 0.1% topical b.i.d.); 369 in assay [1] (study 3, 0.1% topical b.i.d.); 446 in assay [1] (study 4, 0.1% topical b.i.d.); 454 in assay [1] (study 5, 0.1% topical b.i.d.). Besides, the “ear thickness on day 11” value in assay [1] (study 2, 0.1% topical b.i.d.) amounted to 256.8 ± 3.5 μm; in assay [1] (study 3, 0.1% topical b.i.d.), 278.8 ± 5.0 μm; in assay [1] (study 4, 0.1% topical b.i.d.), 260.4 ± 4.5 μm; in assay [1] (study 5, 0.1% topical b.i.d.), 263.4 ± 6.3 μm. Also, the “inhibition of AUC of ear thickness” value is listed as 79.2% in assay [1] (study 2, 0.1% topical b.i.d.); 81.3% in assay [1] (study 3, 0.1% topical b.i.d.); 80.4% in assay [1] (study 4, 0.1% topical b.i.d.); 70.4% in assay [1] (study 5, 0.1% topical b.i.d.).

On to `C=C1CC[C@@H]2[C@](C)(CO)[C@H](O)CC[C@@]2(C)[C@@H]1C/C=C1/C(=O)OC[C@H]1O` [LGT, Andrographolide], for which the IC50 (commonly the concentration that gives 50% inhibition) with NFκB was 0.45 ng/mL (≈ 1.28 nM).

B1: IL-22: Recombinant mouse IL-22, injected intradermally into ears to induce the psoriasis-like model (protein, UniProt Q9JJY9 34-179, looked up)
Interleukin-22: LPVNTRCKLEVSNFQQPYIVNRTFMLAKEASLADNNTDVRLIGEKLFRGVSAKDQCYLMKQVLNFTLEDVLLPQSDRFQPYMQEVVPFLTKLSNQLSSCHISGDDQNIQKNVRRLKETVKKLGESGEIKAIGELDLLFMSLRNACV
Consider B1, for which the “AUC of ear thickness” value in assay [1] (setting [2]) came out at 590; in assay [1] (setting [3]) it was 1055. Moreover, the “ear thickness on day 11” value in assay [1] (setting [2]) is reported as 248.3 ± 1.9, μm; in assay [1] (setting [3]) it was 311.3 ± 18.0, μm. Further, the “ear thickness (d15)” value in assay [1] (study 1, IL-22 100 ng in 20 μL i.d., d15) came to 255.3 ± 15.1 μm. Moreover, the “ear thickness, second value” in assay [1] (study 1, IL-22 500 ng in 20 μL i.d., second value (day not given)) was determined as 296.3 ± 5.0 μm.
